The text below walks through data of ChEMBL document CHEMBL3886595, “Compounds and compositions for inhibiting the activity of ABL1, ABL2 and BCR-ABL1” (2016).

In test [1] the target is T1, Tyrosine-protein kinase ABL1 (Homo sapiens, UniProt P00519). The test is described as follows: Radio ABL1 (64-515) Assay: For determination of ABL kinase activity, the radiometric filter-binding assay was used. The assay was performed by mixing 10 uL of the compound pre-diluted with 10 uL of ATP (20 uM ATP with 0.1 uCi [γ-33P]-ATP) with the phospho-acceptor peptide poly[Ala6Glu2LysHBr5Tyr1]=polyAEKY) in 20 mM Tris/HCl pH 7.5, 1 mM DTT, 10 mM MgCl2, 0.01 mM Na3VO4, 50 mM NaCl. 10 uL of ….
T1 sequence (P00519 whole entry): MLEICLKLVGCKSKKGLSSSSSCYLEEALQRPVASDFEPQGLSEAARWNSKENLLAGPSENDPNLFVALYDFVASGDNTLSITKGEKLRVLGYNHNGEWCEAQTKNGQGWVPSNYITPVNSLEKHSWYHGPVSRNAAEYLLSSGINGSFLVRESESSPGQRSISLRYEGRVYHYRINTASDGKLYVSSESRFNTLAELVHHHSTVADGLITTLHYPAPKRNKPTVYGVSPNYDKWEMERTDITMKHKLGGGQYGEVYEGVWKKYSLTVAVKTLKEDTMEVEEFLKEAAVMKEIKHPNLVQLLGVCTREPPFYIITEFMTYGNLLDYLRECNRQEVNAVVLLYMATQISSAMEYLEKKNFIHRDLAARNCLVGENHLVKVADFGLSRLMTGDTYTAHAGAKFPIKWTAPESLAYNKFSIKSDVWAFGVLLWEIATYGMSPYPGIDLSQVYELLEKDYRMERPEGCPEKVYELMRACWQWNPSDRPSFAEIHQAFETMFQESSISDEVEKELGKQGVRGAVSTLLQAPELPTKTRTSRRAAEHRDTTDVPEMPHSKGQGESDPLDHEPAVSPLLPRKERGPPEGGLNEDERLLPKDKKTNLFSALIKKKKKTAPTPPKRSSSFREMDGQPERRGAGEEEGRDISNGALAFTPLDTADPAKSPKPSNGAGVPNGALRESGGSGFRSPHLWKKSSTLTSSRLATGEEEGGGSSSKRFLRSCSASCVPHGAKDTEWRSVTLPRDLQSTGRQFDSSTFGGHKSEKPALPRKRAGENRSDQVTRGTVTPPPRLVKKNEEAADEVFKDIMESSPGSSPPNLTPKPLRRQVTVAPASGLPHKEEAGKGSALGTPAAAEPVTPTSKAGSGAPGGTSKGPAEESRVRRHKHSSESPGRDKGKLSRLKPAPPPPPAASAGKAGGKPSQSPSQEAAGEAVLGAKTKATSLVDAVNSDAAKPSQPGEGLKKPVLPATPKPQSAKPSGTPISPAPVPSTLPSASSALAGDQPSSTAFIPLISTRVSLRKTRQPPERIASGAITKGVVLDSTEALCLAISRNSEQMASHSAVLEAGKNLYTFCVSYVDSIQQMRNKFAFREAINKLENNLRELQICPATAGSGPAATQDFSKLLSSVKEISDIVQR
Description: 10 uL of enzyme (ranging between 5 nM to 20 nM) was added to initiate the reaction. Pre-incubation of enzyme with compounds (when stated) was performed by exposing the enzyme to compounds prior to addition of the substrate mixture (ATP and/or peptide substrate). […] Filter-plates were washed 3x with 0.5% H3PO4, followed by addition of 30 uL scintillation cocktail (Microscint, Perkin Elmer) per well and then analysed in a TopCount NXT scintillation counter (Perkin Elmer).

Test [2] concerns the target T1, Tyrosine-protein kinase ABL1. Kind of test: Caliper ABL : The assay plates were prepared by addition of 50 nL per well of compound solution in 90% DMSO. The kinase reactions were started by stepwise addition of 4.5 uL per well of peptide/ATP-solution (50 mM HEPES, pH 7.5, 1 mM DTT, 0.02% BSA, 0.6% DMSO, 10 mM beta-glycerophosphate, and 10 uM sodium orthovanadate, 20 mM MgCl2, 2 mM MnCl2, 4 uM ATP, 4 uM peptide (FITC-Ahx-EAIYAAPFAKKK-NH2)) ….

What is called IC50 is the concentration that inhibits the measured activity by half. Low readings indicate greater potency, high ones weaker potency. For the compound `O=C(Nc1ccc(OC(F)(F)F)cc1)c1cnc(N2CC[C@H](CO)C2)c(-c2cncc(F)c2)c1`, the IC50 was 6.3 nM in test [1] and 0.6 nM in test [2].
The compound `Cc1ccc(-c2cc(C(=O)Nc3ccc(OC(F)(F)F)cc3)cnc2N2CC[C@H](N)C2)cn1` yielded an IC50 in test [1] of 7 nM.
